# From US20210386720A1, “METHODS OF TREATING CNS TUMORS WITH TESETAXEL” (Odonate Therapeutics, Inc., priority 2018, published 2021)
# Key:
# [1] = In vivo tissue distribution of 14C-tesetaxel in dogs; design: species or system dog; settings: for t1/2 / Cerebellum / Cerebrum / Plasma: 0.6 mg/kg; for Cerebellum / Cerebrum / Plasma: 14 days post-dose, radioactivity
# Method: (§1) The in vivo tissue distribution of tesetaxel was previously investigated in mice treated with ^14C-tesetaxel at 4 mg/kg and sacrificed between 1-168 hours.^1 Two additional studies have been conducted in dogs and monkeys.
# (§2) Dogs and monkeys were dosed at 0.6 mg/kg and 1 mg/kg of ^14C-tesetaxel, respectively, and tissue distribution was assessed at 336 hours post-dose (14 days). These doses equate to ˜44% of the 27 mg/m^2 dose in an ongoing Phase 3 clinical study. In vivo radioactivity concentrations in the cerebrum and cerebellum were compared to plasma concentrations and mean tumor GI50 (concentration resulting in 50% tumor growth inhibition) determined by MTT assay in 23 tumor cell lines.
# [2] = Terminal plasma half-life in humans
# [3] = In vivo tissue distribution of 14C-tesetaxel in monkeys; design: species or system monkey; settings: for t1/2 / Cerebellum / Cerebrum / Plasma: 1 mg/kg; for Cerebellum / Cerebrum / Plasma: 14 days post-dose, radioactivity
# Method: as §1, §2
# [4] = Human plasma and CNS tissue binding by rapid equilibrium dialysis; assay type: in vitro ADME
# taxane-resistant tumors = test: Nonclinical studies of activity against taxane-resistant tumors
# [5] = dog, single oral dose of 0.6 mg/kg, N=3
# [6] = monkey, single oral dose of 1 mg/kg, N=3
structure (smiles),measurement,setting,value
CC(=O)O[C@@]12CO[C@@H]1CC[C@@]1(C)[C@@H]3O[C@H](CN(C)C)O[C@@H]3C3=C(C)[C@@H](OC(=O)[C@H](O)[C@@H](NC(=O)OC(C)(C)C)c4ncccc4F)C[C@@](O)([C@@H](OC(=O)c4ccccc4)[C@@H]12)C3(C)C [Tesetaxel],t1/2,"[1]; dog, IV",72 h
same,Cerebellum,"[1]; dog, IV",7.8 ± 0.6 ng eq/g
same,Cerebrum,"[1]; dog, IV",16.8 ± 2.9 ng eq/g
same,Plasma,"[1]; dog, IV",0.5 ± 0.0 ng eq/mL
same,t1/2,"[1]; dog, PO",96 h
same,Cerebellum,"[1]; dog, PO",6.1 ± 1.9 ng eq/g
same,Cerebrum,"[1]; dog, PO",10.9 ± 4.0 ng eq/g
same,Plasma,"[1]; dog, PO",0.9 ± 0.1 ng eq/mL
same,Cerebrum/Plasma,"[1]; dog, single oral dose of 0.6 mg/kg, 14 days after dosing",12x
same,"14C-Tesetaxel Radioactivity Concentration 14 Days after Dosing, Cerebrum (Mean ± SD)",[1]; [5],10.9 ± 4.0 ng eq./g or mL
same,"14C-Tesetaxel Radioactivity Concentration 14 Days after Dosing, Plasma (Mean ± SD)",[1]; [5],0.9 ± 0.1 ng eq./g or mL
same,CNS penetration,"[1]; dogs, oral (PO) or intravenous (IV) administration",CNS penetration was observed
same,Terminal plasma half-life (t1/2),[2],~190 h
same,t1/2,"[3]; monkey, IV",72 h
same,Cerebellum,"[3]; monkey, IV",18 ± 1.0 ng eq/g
same,Cerebrum,"[3]; monkey, IV",21 ± 2.0 ng eq/g
same,Plasma,"[3]; monkey, IV",1.0 ± 0.0 ng eq/mL
same,t1/2,"[3]; monkey, PO",52.8 h
same,Cerebellum,"[3]; monkey, PO",4.4 ± 1.7 ng eq/g
same,Cerebrum,"[3]; monkey, PO",6.5 ± 3.8 ng eq/g
same,Plasma,"[3]; monkey, PO",0.9 ± 0.2 ng eq/mL
same,Cerebrum/Plasma,"[3]; monkey, single oral dose of 1 mg/kg, 14 days after dosing",7x
same,"14C-Tesetaxel Radioactivity Concentration 14 Days after Dosing, Cerebrum (Mean ± SD)",[3]; [6],6.5 ± 3.8 ng eq./g or mL
same,"14C-Tesetaxel Radioactivity Concentration 14 Days after Dosing, Plasma (Mean ± SD)",[3]; [6],0.9 ± 0.2 ng eq./g or mL
same,CNS penetration,"[3]; monkeys, oral (PO) or intravenous (IV) administration",CNS penetration was observed
same,CNS tissue binding,[4]; CNS tissue,98.9%
same,Human plasma binding,[4]; plasma,98.2%
same,Activity against taxane-resistant tumors,taxane-resistant tumors,retain activity against taxane-resistant tumors
